Test results published in ChEMBL document CHEMBL3885881, “DrugMatrix”.

Organism: Rattus norvegicus
Assay: DrugMatrix - Regimen: Daily Repeat
Type: toxicity, organism-based, Sprague-Dawley
Design: regimen Daily Repeat, gender Male, age 6-8 weeks
Conditions: in vivo, po, route oral GAVAGE, vehicle .5 % CMC; for ABSOLUTE BASOPHIL / ABSOLUTE EOSINOPHIL / ABSOLUTE LYMPHOCYTE / ABSOLUTE MONOCYTE / ABSOLUTE SEGMENTED NEUTROPHIL / BASOPHIL / EOSINOPHIL / ERYTHROCYTE COUNT / HEMATOCRIT / HEMOGLOBIN / LEUKOCYTE COUNT / LYMPHOCYTE / MEAN CORPUSCULAR HEMOGLOBIN / MEAN CORPUSCULAR HEMOGLOBIN CONCENTRATION / MEAN CORPUSCULAR VOLUME / MONOCYTE / NEUTROPHIL / NUCLEATED RED BLOOD CELLS / PLATELET COUNT: tissue Blood; for ALANINE AMINOTRANSFERASE / ALBUMIN / ALKALINE PHOSPHATASE / ASPARTATE AMINOTRANSFERASE / BLOOD UREA NITROGEN / CARBON DIOXIDE / CHLORIDE / CHOLESTEROL / CREATINE PHOSPHOKINASE / CREATININE / GLUCOSE / LACTATE DEHYDROGENASE / LIPASE / PHOSPHORUS / POTASSIUM / SODIUM / TOTAL BILIRUBIN / TOTAL PROTEIN / URIC ACID: tissue Plasma
[1] = 4.5 mg/kg, 120 h, dose level Low, time 5 day
[2] = 10 mg/kg, 72 h, dose level High, time 3 day
[3] = 10 mg/kg, 120 h, dose level High, time 5 day

CC(C(=O)O)c1ccc(-c2ccccc2)c(F)c1 (centres undefined) [FLURBIPROFEN]
ABSOLUTE BASOPHIL [1]: 0 CELLS/uL
ABSOLUTE EOSINOPHIL [1]: 147.67 CELLS/uL
ABSOLUTE LYMPHOCYTE [1]: 17510 CELLS/uL
ABSOLUTE MONOCYTE [1]: 77.67 CELLS/uL
ABSOLUTE SEGMENTED NEUTROPHIL [1]: 4798 CELLS/uL
BASOPHIL [1]: 0%
EOSINOPHIL [1]: 0.67%
ERYTHROCYTE COUNT [1]: 5.45 x10E6/uL
HEMATOCRIT [1]: 34.47%
HEMOGLOBIN [1]: 12.83 G/DL
LEUKOCYTE COUNT [1]: 22.53 x10E3/uL
LYMPHOCYTE [1]: 77.67%
MEAN CORPUSCULAR HEMOGLOBIN [1]: 23.53 pg
MEAN CORPUSCULAR HEMOGLOBIN CONCENTRATION [1]: 37.23 G/DL
MEAN CORPUSCULAR VOLUME [1]: 63.2 fL
MONOCYTE [1]: 0.33%
NEUTROPHIL [1]: 21.33%
NUCLEATED RED BLOOD CELLS [1]: 0 /100WBC
PLATELET COUNT [1]: 1825.67 x10E3/uL
ALANINE AMINOTRANSFERASE [1]: 45.67 u/L
ALBUMIN [1]: 3.93 G/DL
ALKALINE PHOSPHATASE [1]: 223.33 u/L
ASPARTATE AMINOTRANSFERASE [1]: 67.33 u/L
BLOOD UREA NITROGEN [1]: 14.67 mg/dL
CARBON DIOXIDE [1]: 27.67 mmol/L
CHLORIDE [1]: 100 MEQ/L
CHOLESTEROL [1]: 64.33 mg/dL
CREATINE PHOSPHOKINASE [1]: 204.67 u/L
CREATININE [1]: 0.18 mg/dL
GLUCOSE [1]: 162.67 mg/dL
LACTATE DEHYDROGENASE [1]: 109.33 u/L
LIPASE [1]: 8.67 u/L
PHOSPHORUS [1]: 11.9 mg/dL
POTASSIUM [1]: 6.47 MEQ/L
SODIUM [1]: 143.53 MEQ/L
TOTAL BILIRUBIN [1]: 0.17 mg/dL
TOTAL PROTEIN [1]: 5.73 G/DL
URIC ACID [1]: 2.47 mg/dL
ABSOLUTE BASOPHIL [2]: 0 CELLS/uL
ABSOLUTE EOSINOPHIL [2]: 156 CELLS/uL
ABSOLUTE LYMPHOCYTE [2]: 13184.67 CELLS/uL
ABSOLUTE MONOCYTE [2]: 124.67 CELLS/uL
ABSOLUTE SEGMENTED NEUTROPHIL [2]: 3134.67 CELLS/uL
BASOPHIL [2]: 0%
EOSINOPHIL [2]: 1%
ERYTHROCYTE COUNT [2]: 4.13 x10E6/uL
HEMATOCRIT [2]: 25.13%
HEMOGLOBIN [2]: 10 G/DL
LEUKOCYTE COUNT [2]: 16.6 x10E3/uL
LYMPHOCYTE [2]: 79.67%
MEAN CORPUSCULAR HEMOGLOBIN [2]: 24.27 pg
MEAN CORPUSCULAR HEMOGLOBIN CONCENTRATION [2]: 39.83 G/DL
MEAN CORPUSCULAR VOLUME [2]: 61.07 fL
MONOCYTE [2]: 0.67%
NEUTROPHIL [2]: 18.67%
NUCLEATED RED BLOOD CELLS [2]: 0 /100WBC
PLATELET COUNT [2]: 1131.67 x10E3/uL
ALANINE AMINOTRANSFERASE [2]: 16 u/L
ALBUMIN [2]: 2.13 G/DL
ALKALINE PHOSPHATASE [2]: 132.67 u/L
ASPARTATE AMINOTRANSFERASE [2]: 50 u/L
BLOOD UREA NITROGEN [2]: 12 mg/dL
CARBON DIOXIDE [2]: 23 mmol/L
CHLORIDE [2]: 104.33 MEQ/L
CHOLESTEROL [2]: 60 mg/dL
CREATINE PHOSPHOKINASE [2]: 459.67 u/L
CREATININE [2]: 0.11 mg/dL
GLUCOSE [2]: 149.33 mg/dL
LACTATE DEHYDROGENASE [2]: 200.33 u/L
LIPASE [2]: 7.33 u/L
PHOSPHORUS [2]: 10.17 mg/dL
POTASSIUM [2]: 6.66 MEQ/L
SODIUM [2]: 141.47 MEQ/L
TOTAL BILIRUBIN [2]: 0 mg/dL
TOTAL PROTEIN [2]: 3.97 G/DL
URIC ACID [2]: 1.6 mg/dL
ABSOLUTE BASOPHIL [3]: 0 CELLS/uL
ABSOLUTE EOSINOPHIL [3]: 295.67 CELLS/uL
ABSOLUTE LYMPHOCYTE [3]: 12633.33 CELLS/uL
ABSOLUTE MONOCYTE [3]: 394 CELLS/uL
ABSOLUTE SEGMENTED NEUTROPHIL [3]: 4310.33 CELLS/uL
BASOPHIL [3]: 0%
EOSINOPHIL [3]: 2%
ERYTHROCYTE COUNT [3]: 4.56 x10E6/uL
HEMATOCRIT [3]: 28.67%
HEMOGLOBIN [3]: 11 G/DL
LEUKOCYTE COUNT [3]: 17.63 x10E3/uL
LYMPHOCYTE [3]: 68.33%
MEAN CORPUSCULAR HEMOGLOBIN [3]: 24.17 pg
MEAN CORPUSCULAR HEMOGLOBIN CONCENTRATION [3]: 38.37 G/DL
MEAN CORPUSCULAR VOLUME [3]: 62.97 fL
MONOCYTE [3]: 1.67%
NEUTROPHIL [3]: 28%
NUCLEATED RED BLOOD CELLS [3]: 0.33 /100WBC
PLATELET COUNT [3]: 1559.67 x10E3/uL
ALANINE AMINOTRANSFERASE [3]: 29 u/L
ALBUMIN [3]: 2.7 G/DL
ALKALINE PHOSPHATASE [3]: 259.67 u/L
ASPARTATE AMINOTRANSFERASE [3]: 105.67 u/L
BLOOD UREA NITROGEN [3]: 16 mg/dL
CARBON DIOXIDE [3]: 25 mmol/L
CHLORIDE [3]: 100.67 MEQ/L
CHOLESTEROL [3]: 63.33 mg/dL
CREATINE PHOSPHOKINASE [3]: 164.67 u/L
CREATININE [3]: 0.13 mg/dL
GLUCOSE [3]: 140.33 mg/dL
LACTATE DEHYDROGENASE [3]: 138 u/L
LIPASE [3]: 8.33 u/L
PHOSPHORUS [3]: 11.9 mg/dL
POTASSIUM [3]: 6.44 MEQ/L
SODIUM [3]: 142.2 MEQ/L
TOTAL BILIRUBIN [3]: 0.1 mg/dL
TOTAL PROTEIN [3]: 5.03 G/DL
URIC ACID [3]: 1.63 mg/dL
